Experimental data as given in ChEMBL document CHEMBL5523727, “Discovery of KT-413, a Targeted Protein Degrader of IRAK4 and IMiD Substrates Targeting MYD88 Mutant Diffuse Large B-Cell Lymphoma” (J Med Chem, 2024).
One block for each compound: values may come before it.

Experiments:
[1] = Metabolic stability in rat liver microsomes assessed as intrinsic clearance at 1 uM measured upto 60 mins in presence of NADPH by UPLC/MS-MS analysis; type: ADME, Microsome; settings: read-out: CLH
[2] = molecular target: T1, Protein cereblon/Interleukin-1 receptor-associated kinase 4 (Homo sapiens, UniProt Q9NWZ3+Q96SW2); experiment: PROTAC activity at CRBN/IRAK4 in human OCI-Ly10 cells assessed as induction of IRAK4 degradation measured after 24 hrs by MSD assay; type: cell-based
Target sequence in this assay (Q9NWZ3 whole entry): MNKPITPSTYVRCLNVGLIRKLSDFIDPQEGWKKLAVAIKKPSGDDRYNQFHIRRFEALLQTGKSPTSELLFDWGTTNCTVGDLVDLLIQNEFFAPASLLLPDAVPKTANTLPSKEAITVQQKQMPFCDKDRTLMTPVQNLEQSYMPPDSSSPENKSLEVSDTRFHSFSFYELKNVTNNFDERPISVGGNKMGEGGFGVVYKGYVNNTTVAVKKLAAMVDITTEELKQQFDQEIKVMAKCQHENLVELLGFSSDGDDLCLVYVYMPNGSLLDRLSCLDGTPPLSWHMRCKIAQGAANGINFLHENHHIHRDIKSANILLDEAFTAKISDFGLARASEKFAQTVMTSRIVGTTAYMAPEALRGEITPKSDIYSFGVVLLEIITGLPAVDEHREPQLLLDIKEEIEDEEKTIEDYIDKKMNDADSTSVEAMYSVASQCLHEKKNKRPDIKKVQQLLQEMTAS
Target sequence in this assay (Q96SW2 whole entry): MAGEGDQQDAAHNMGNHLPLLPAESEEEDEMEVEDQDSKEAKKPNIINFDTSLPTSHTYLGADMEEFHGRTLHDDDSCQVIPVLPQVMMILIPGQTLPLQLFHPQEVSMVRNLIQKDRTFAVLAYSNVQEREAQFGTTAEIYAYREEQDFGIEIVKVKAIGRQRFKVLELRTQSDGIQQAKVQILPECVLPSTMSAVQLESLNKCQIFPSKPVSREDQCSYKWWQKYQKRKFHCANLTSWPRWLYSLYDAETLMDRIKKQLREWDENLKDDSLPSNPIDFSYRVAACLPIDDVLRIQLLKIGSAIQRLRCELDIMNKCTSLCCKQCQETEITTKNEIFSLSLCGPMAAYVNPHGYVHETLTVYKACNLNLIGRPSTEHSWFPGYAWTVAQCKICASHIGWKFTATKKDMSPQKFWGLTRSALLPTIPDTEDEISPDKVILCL

[3] = Metabolic stability in human liver microsomes assessed as intrinsic clearance at 1 uM measured upto 60 mins in presence of NADPH by UPLC/MS-MS analysis; type: ADME, Microsome; settings: read-out: CLH
OCI-Ly10 = experiment: Antiproliferative activity against human OCI-Ly10 cells measured after 4 days by CellTiter-Glo Luminescent Cell Viability Assay; type: functional, cell-based
Protein cereblon = Protein cereblon (Homo sapiens, UniProt Q96SW2); experiment: Binding affinity to CRBN (unknown origin) by HTRF assay
Protein cereblon, sequence (Q96SW2 whole entry): as above

Cereblon/Ikaros = Cereblon/Ikaros (Homo sapiens, UniProt Q96SW2+Q13422); experiment: PROTAC activity at CRBN/Ikaros in human OCI-Ly10 cells assessed as induction of Ikaros degradation measured after 24 hrs by MSD assay; type: cell-based
Cereblon/Ikaros, sequence (Q96SW2 whole entry): as above
Cereblon/Ikaros, sequence (Q13422 whole entry): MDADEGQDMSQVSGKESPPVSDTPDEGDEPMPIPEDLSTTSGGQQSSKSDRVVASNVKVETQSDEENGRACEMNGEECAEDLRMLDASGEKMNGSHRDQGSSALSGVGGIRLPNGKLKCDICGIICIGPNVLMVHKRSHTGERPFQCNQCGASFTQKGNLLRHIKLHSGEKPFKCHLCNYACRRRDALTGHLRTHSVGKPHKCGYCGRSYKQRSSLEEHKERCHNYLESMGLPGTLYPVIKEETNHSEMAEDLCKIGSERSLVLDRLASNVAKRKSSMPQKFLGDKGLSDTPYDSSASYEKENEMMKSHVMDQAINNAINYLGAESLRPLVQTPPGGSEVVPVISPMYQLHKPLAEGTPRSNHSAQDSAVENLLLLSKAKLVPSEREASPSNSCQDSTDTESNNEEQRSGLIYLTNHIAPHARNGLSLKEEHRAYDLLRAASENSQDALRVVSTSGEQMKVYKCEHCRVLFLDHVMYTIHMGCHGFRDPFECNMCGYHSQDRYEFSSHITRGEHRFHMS

[4] = Passive permeability of the compound in wild type MDCK cells across apical to basolateral side at 1 uM measured for 120 mins by LC-MS/MS analysis; type: ADME, cell-based, Canis lupus familiaris; settings: dog, read-out: permeability
[5] = molecular target: T1, Protein cereblon/Interleukin-1 receptor-associated kinase 4; experiment: PROTAC activity at CRBN/IRAK4 in human OCI-Ly10 cells assessed as induction of IRAK4 degradation measured after 24 hrs by MSD assay relative to control; type: cell-based
Target sequence in this assay (Q96SW2 whole entry, looked up): as the sequence (Q96SW2 whole entry) above
Target sequence in this assay (Q9NWZ3 whole entry, looked up): as the sequence (Q9NWZ3 whole entry) above

[6] = molecular target: Protein cereblon/Interleukin-1 receptor-associated kinase 4 (Homo sapiens, UniProt Q96SW2+Q9NWZ3); experiment: Binding affinity to CRBN/IRAK4 […] assessed as dissociation constant by DiscoverX Kd Elect assay
Protein cereblon/Interleukin-1 receptor-associated kinase 4 (Homo sapiens, UniProt Q96SW2+Q9NWZ3), sequence (Q9NWZ3 whole entry): as above
Protein cereblon/Interleukin-1 receptor-associated kinase 4 (Homo sapiens, UniProt Q96SW2+Q9NWZ3), sequence (Q96SW2 whole entry): as the sequence (Q96SW2 whole entry) above

[7] = Volume of distribution at steady state in rat at 2 mg/kg, iv by LC-MS/MS analysis; type: ADME, organism-based; settings: in vivo, read-out: Vdss
[8] = Clearance in rat at 2 mg/kg, iv by LC-MS/MS analysis; type: ADME, organism-based; settings: in vivo
[9] = AUC in rat at 10 mg/kg, po by LC-MS/MS analysis; type: ADME, organism-based; settings: in vivo
[10] = Oral bioavailability in rat at 10 mg/kg by LC-MS/MS analysis; type: ADME, organism-based; settings: in vivo
[11] = Half life in rat at 2 mg/kg, iv by LC-MS/MS analysis; type: ADME, organism-based; settings: in vivo

Compound: CN(CCCO[C@H]1C[C@H](Nc2cccc3c2C(=O)N(C2CCC(=O)NC2=O)C3=O)C1)C[C@H]1CC[C@H](n2cc3cc(NC(=O)c4cccc(C(F)(F)F)n4)c(C(F)F)cc3n2)CC1 (stereo partly specified)
- microsomal CLint at 1 µM [1]: 32 µL/min/mg
- DC50 [2]: 13 nM
- microsomal CLint at 1 µM [3]: 25 µL/min/mg
- IC50 (OCI-Ly10; Homo sapiens, OCI-Ly10, 96 h): 46 nM
- IC50 (Protein cereblon): 24 nM
- DC50 (Cereblon/Ikaros): 17 nM
- Papp A→B at 2 h, 1 µM [4]: 0.76 ×10⁻⁶ cm/s

Compound: CC(C)(O)c1cc2c(cnn2CCCCCCCCCNc2cccc3c2C(=O)N(C2CCC(=O)NC2=O)C3=O)cc1NC(=O)c1cccc(C(F)(F)F)n1 (stereo unspecified)
- DC50 [2]: > 10000 nM
- IC50 (OCI-Ly10; Homo sapiens, OCI-Ly10, 96 h): 660 nM
- IC50 (Protein cereblon): 880 nM
- DC50 (Cereblon/Ikaros): 56 nM
- Emax [5]: 30%
- Kd [6]: > 3000 nM

Compound: CC(C)(O)c1cc2nn([C@H]3CC[C@H](CN4CCC5(CC4)CC(Nc4cccc6c4C(=O)N(C4CCC(=O)NC4=O)C6=O)C5)CC3)cc2cc1NC(=O)c1cccc(C(F)(F)F)n1 (stereo partly specified)
- microsomal CLint at 1 µM [1]: 2.7 µL/min/mg
- DC50 [2]: 3 nM
- Vd [7]: 13 L/kg
- clearance [8]: 13 mL/min/kg
- microsomal CLint at 1 µM [3]: 1.2 µL/min/mg
- IC50 (OCI-Ly10; Homo sapiens, OCI-Ly10, 96 h): 25 nM
- IC50 (Protein cereblon): 10 nM
- DC50 (Cereblon/Ikaros): 27 nM
- Papp A→B at 2 h, 1 µM [4]: 2.8 ×10⁻⁶ cm/s
- AUC ([9]; read-out: AUC): 1.4 µM·h
- bioavailability [10]: 17%
- half-life [11]: 12 h

Compound: CN(CCCNc1cccc2c1C(=O)N(C1CCC(=O)NC1=O)C2=O)C[C@H]1CC[C@H](n2cc3cc(NC(=O)c4cccc(C(F)(F)F)n4)c(C(C)(C)O)cc3n2)CC1 (stereo partly specified)
- microsomal CLint at 1 µM [1]: 138 µL/min/mg
- DC50 [2]: 36 nM
- microsomal CLint at 1 µM [3]: 140 µL/min/mg
- IC50 (OCI-Ly10; Homo sapiens, OCI-Ly10, 96 h): 120 nM
- IC50 (Protein cereblon): 62 nM
- DC50 (Cereblon/Ikaros): 10 nM
- Papp A→B at 2 h, 1 µM [4]: 0.66 ×10⁻⁶ cm/s
- Kd [6]: 0.38 nM

Compound: CC(C)(O)c1cc2nn([C@H]3CC[C@H](CN4CCC(O[C@H]5C[C@H](Nc6cccc7c6C(=O)N(C6CCC(=O)NC6=O)C7=O)C5)CC4)CC3)cc2cc1NC(=O)c1cccc(C(F)(F)F)n1 (stereo partly specified)
- microsomal CLint at 1 µM [1]: 3.8 µL/min/mg
- DC50 [2]: 5 nM
- Vd [7]: 8.9 L/kg
- clearance [8]: 7 mL/min/kg
- microsomal CLint at 1 µM [3]: 4.1 µL/min/mg
- IC50 (OCI-Ly10; Homo sapiens, OCI-Ly10, 96 h): 2300 nM
- IC50 (Protein cereblon): 26 nM
- DC50 (Cereblon/Ikaros): 470 nM
- Papp A→B at 2 h, 1 µM [4]: 26 ×10⁻⁶ cm/s
- AUC ([9]; read-out: AUC): 5.3 µM·h
- bioavailability [10]: 29%
- half-life [11]: 16 h

Compound: CN(C[C@H]1CC[C@H](n2cc3cc(NC(=O)c4cccc(C(F)(F)F)n4)c(C(C)(C)O)cc3n2)CC1)[C@H]1CC[C@]2(CC1)C[C@H](Nc1cccc3c1C(=O)N(C1CCC(=O)NC1=O)C3=O)C2 (stereo partly specified)
- microsomal CLint at 1 µM [1]: < 1.8 µL/min/mg
- DC50 [2]: 6 nM
- microsomal CLint at 1 µM [3]: < 1.8 µL/min/mg
- IC50 (OCI-Ly10; Homo sapiens, OCI-Ly10, 96 h): 78 nM
- IC50 (Protein cereblon): 8 nM
- DC50 (Cereblon/Ikaros): 57 nM
- Papp A→B at 2 h, 1 µM [4]: 2.1 ×10⁻⁶ cm/s

Compound: CC(C)(O)c1cc2nn(CCCCCNCCCNc3cccc4c3C(=O)N(C3CCC(=O)NC3=O)C4=O)cc2cc1NC(=O)c1cccc(C(F)(F)F)n1 (stereo unspecified)
- DC50 [2]: 128 nM
- IC50 (OCI-Ly10; Homo sapiens, OCI-Ly10, 96 h): 125 nM
- IC50 (Protein cereblon): 79 nM
- DC50 (Cereblon/Ikaros): 17 nM
- Papp A→B at 2 h, 1 µM [4]: 0.42 ×10⁻⁶ cm/s
- Kd [6]: 2.2 nM

- Kd [6]: 3.5 nM
Compound: CC(C)(O)c1cc2nn(-c3ccc(CO)cc3)cc2cc1NC(=O)c1cccc(C(F)(F)F)n1

Compound: COc1cc2nn([C@H]3CC[C@H](CN4CC5(CC(CCNc6cccc7c6C(=O)N(C6CCC(=O)NC6=O)C7=O)C5)C4)CC3)cc2cc1NC(=O)c1cccc(C(F)(F)F)n1 (stereo partly specified)
- microsomal CLint at 1 µM [1]: 1.6 µL/min/mg
- DC50 [2]: 8 nM
- Vd [7]: 29 L/kg
- microsomal CLint at 1 µM [3]: 0.79 µL/min/mg
- IC50 (OCI-Ly10; Homo sapiens, OCI-Ly10, 96 h): 48 nM
- IC50 (Protein cereblon): 27 nM
- DC50 (Cereblon/Ikaros): 9 nM
- Papp A→B at 2 h, 1 µM [4]: 1 ×10⁻⁶ cm/s
- AUC ([9]; po, 10 mg/kg): 0.13 µM·h
- F ([10]; po, 10 mg/kg): 4.2%
- half-life [11]: 17 h

Compound: CN(C[C@H]1CC[C@H](n2cc3cc(NC(=O)c4cccc(C(F)(F)F)n4)c(C(C)(C)O)cc3n2)CC1)[C@H]1CC[C@@]2(CC1)C[C@H](Nc1cccc3c1C(=O)N(C1CCC(=O)NC1=O)C3=O)C2 (stereo partly specified)
- microsomal CLint at 1 µM [1]: < 1.8 µL/min/mg
- DC50 [2]: 13 nM
- microsomal CLint at 1 µM [3]: < 1.8 µL/min/mg
- IC50 (OCI-Ly10; oci-ly10): 134 nM
- IC50 (Protein cereblon): 5 nM
- DC50 (Cereblon/Ikaros): 19 nM
- Papp A→B at 2 h, 1 µM [4]: 2.9 ×10⁻⁶ cm/s

Compound: CN(CCCO[C@H]1C[C@H](Nc2cccc3c2C(=O)N(C2CCC(=O)NC2=O)C3=O)C1)C[C@H]1CC[C@H](n2cc3cc(NC(=O)c4cccc(C(F)(F)F)n4)c(C(C)(C)O)cc3n2)CC1 (stereo partly specified)
- microsomal CLint at 1 µM [1]: 26 µL/min/mg
- DC50 [2]: 4 nM
- Vd [7]: 9.5 L/kg
- clearance [8]: 36 mL/min/kg
- microsomal CLint at 1 µM [3]: 68 µL/min/mg
- IC50 (OCI-Ly10; Homo sapiens, OCI-Ly10, 96 h): 14 nM
- IC50 (Protein cereblon): 21 nM
- DC50 (Cereblon/Ikaros): 5 nM
- Papp A→B at 2 h, 1 µM [4]: 4.9 ×10⁻⁶ cm/s
- Kd [6]: 0.63 nM
- AUC ([9]; read-out: AUC): 0.76 µM·h
- bioavailability [10]: 15%
- half-life [11]: 3.8 h

Compound: COc1cc2nc([C@H]3CC[C@H](CN4CC5(CC(CCNc6cccc7c6C(=O)N(C6CCC(=O)NC6=O)C7=O)C5)C4)CC3)n(C)c2cc1NC(=O)c1cccc(C(F)(F)F)n1 (stereo partly specified)
- microsomal CLint at 1 µM [1]: 2.2 µL/min/mg
- DC50 [2]: 33 nM
- Vd [7]: 33 L/kg
- clearance [8]: 41 mL/min/kg
- microsomal CLint at 1 µM [3]: 7 µL/min/mg
- IC50 (OCI-Ly10; Homo sapiens, OCI-Ly10, 96 h): 35 nM
- DC50 (Cereblon/Ikaros): 2 nM
- Papp A→B at 2 h, 1 µM [4]: 0.4 ×10⁻⁶ cm/s
- AUC ([9]; read-out: AUC): 0.09 µM·h
- bioavailability [10]: 2.3%
- half-life [11]: 11 h
